# Measured values: PubChem BioAssay (NCI)
#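 Exposure lasted 48 hours, with cells grown in 96-well plates and compounds tested at five concentrations. TGI marks complete inhibition of growth.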
# Assays:
# Assay in all cases: NCI-60 cell line screen, 48 h
# 786-0 renal = tested on: 786-0 renal
# A498 renal = tested on: A498 renal
# A549 NSCLC = tested on: A549 NSCLC
# ACHN renal = tested on: ACHN renal
# BT-549 breast = tested on: BT-549 breast
# CAKI-1 renal = tested on: CAKI-1 renal
# CCRF-CEM leukemia = tested on: CCRF-CEM leukemia
# COLO 205 colon = tested on: COLO 205 colon
# DU-145 prostate = tested on: DU-145 prostate
# EKVX NSCLC = tested on: EKVX NSCLC
# HCC-2998 colon = tested on: HCC-2998 colon
# HCT-116 colon = tested on: HCT-116 colon
# HCT-15 colon = tested on: HCT-15 colon
# HL-60(TB) leukemia = tested on: HL-60(TB) leukemia
# HOP-62 NSCLC = tested on: HOP-62 NSCLC
# HOP-92 NSCLC = tested on: HOP-92 NSCLC
# HS 578T breast = tested on: HS 578T breast
# HT29 colon = tested on: HT29 colon
# IGROV1 ovarian = tested on: IGROV1 ovarian
# KM12 colon = tested on: KM12 colon
# LOX IMVI melanoma = tested on: LOX IMVI melanoma
# M14 melanoma = tested on: M14 melanoma
# MALME-3M melanoma = tested on: MALME-3M melanoma
# MCF7 breast = tested on: MCF7 breast
# MDA-MB-231 breast = tested on: MDA-MB-231 breast
# MDA-MB-435 = tested on: MDA-MB-435
# MDA-N = tested on: MDA-N
# MOLT-4 leukemia = tested on: MOLT-4 leukemia
# NCI-H226 lung = tested on: NCI-H226 lung
# NCI-H23 lung = tested on: NCI-H23 lung
# NCI-H460 lung = tested on: NCI-H460 lung
# NCI-H522 lung = tested on: NCI-H522 lung
# NCI/ADR-RES ovarian = tested on: NCI/ADR-RES ovarian
# OVCAR-3 ovarian = tested on: OVCAR-3 ovarian
# OVCAR-4 ovarian = tested on: OVCAR-4 ovarian
# OVCAR-5 ovarian = tested on: OVCAR-5 ovarian
# OVCAR-8 ovarian = tested on: OVCAR-8 ovarian
# PC-3 prostate = tested on: PC-3 prostate
# RPMI-8226 leukemia = tested on: RPMI-8226 leukemia
# RXF 393 renal = tested on: RXF 393 renal
# SF-268 CNS = tested on: SF-268 CNS
# SF-295 CNS = tested on: SF-295 CNS
# SF-539 CNS = tested on: SF-539 CNS
# SK-MEL-2 melanoma = tested on: SK-MEL-2 melanoma
# SK-MEL-28 melanoma = tested on: SK-MEL-28 melanoma
# SK-MEL-5 melanoma = tested on: SK-MEL-5 melanoma
# SK-OV-3 ovarian = tested on: SK-OV-3 ovarian
# SN12C renal = tested on: SN12C renal
# SNB-19 CNS = tested on: SNB-19 CNS
# SNB-75 CNS = tested on: SNB-75 CNS
# SR leukemia = tested on: SR leukemia
# SW-620 colon = tested on: SW-620 colon
# T-47D breast = tested on: T-47D breast
# TK-10 renal = tested on: TK-10 renal
# U251 CNS = tested on: U251 CNS
# UACC-257 melanoma = tested on: UACC-257 melanoma
# UACC-62 melanoma = tested on: UACC-62 melanoma
# UO-31 renal = tested on: UO-31 renal
# K-562 leukemia = tested on: K-562 leukemia
smiles,measurement,setting,value
O=C1c2cn[nH]c2C(c2ccccc2)N1c1ccccc1 (stereo not given),TGI,786-0 renal,> 10 µM
same,TGI,A498 renal,> 10 µM
same,TGI,A549 NSCLC,> 10 µM
same,TGI,ACHN renal,> 10 µM
same,TGI,BT-549 breast,> 10 µM
same,TGI,CAKI-1 renal,> 10 µM
same,TGI,CCRF-CEM leukemia,> 10 µM
same,TGI,COLO 205 colon,> 10 µM
same,TGI,DU-145 prostate,> 10 µM
same,TGI,EKVX NSCLC,> 10 µM
same,TGI,HCC-2998 colon,> 10 µM
same,TGI,HCT-116 colon,> 10 µM
same,TGI,HCT-15 colon,> 10 µM
same,TGI,HL-60(TB) leukemia,> 10 µM
same,TGI,HOP-62 NSCLC,> 10 µM
same,TGI,HOP-92 NSCLC,> 10 µM
same,TGI,HS 578T breast,> 10 µM
same,TGI,HT29 colon,> 10 µM
same,TGI,IGROV1 ovarian,> 10 µM
same,TGI,KM12 colon,> 10 µM
same,TGI,LOX IMVI melanoma,> 10 µM
same,TGI,M14 melanoma,> 10 µM
same,TGI,MALME-3M melanoma,> 10 µM
same,TGI,MCF7 breast,> 10 µM
same,TGI,MDA-MB-231 breast,> 10 µM
same,TGI,MDA-MB-435,> 10 µM
same,TGI,MDA-N,> 10 µM
same,TGI,MOLT-4 leukemia,> 10 µM
same,TGI,NCI-H226 lung,> 10 µM
same,TGI,NCI-H23 lung,> 10 µM
same,TGI,NCI-H460 lung,> 10 µM
same,TGI,NCI-H522 lung,> 10 µM
same,TGI,NCI/ADR-RES ovarian,> 10 µM
same,TGI,OVCAR-3 ovarian,> 10 µM
same,TGI,OVCAR-4 ovarian,> 10 µM
same,TGI,OVCAR-5 ovarian,> 10 µM
same,TGI,OVCAR-8 ovarian,> 10 µM
same,TGI,PC-3 prostate,> 10 µM
same,TGI,RPMI-8226 leukemia,> 10 µM
same,TGI,RXF 393 renal,> 10 µM
same,TGI,SF-268 CNS,> 10 µM
same,TGI,SF-295 CNS,> 10 µM
same,TGI,SF-539 CNS,> 10 µM
same,TGI,SK-MEL-2 melanoma,> 10 µM
same,TGI,SK-MEL-28 melanoma,> 10 µM
same,TGI,SK-MEL-5 melanoma,> 10 µM
same,TGI,SK-OV-3 ovarian,> 10 µM
same,TGI,SN12C renal,> 10 µM
same,TGI,SNB-19 CNS,> 10 µM
same,TGI,SNB-75 CNS,> 10 µM
same,TGI,SR leukemia,> 10 µM
same,TGI,SW-620 colon,> 10 µM
same,TGI,T-47D breast,> 10 µM
same,TGI,TK-10 renal,> 10 µM
same,TGI,U251 CNS,> 10 µM
same,TGI,UACC-257 melanoma,> 10 µM
same,TGI,UACC-62 melanoma,> 10 µM
same,TGI,UO-31 renal,> 10 µM
CCOC(=O)COc1ccc2c(C)cc(=O)oc2c1,TGI,786-0 renal,> 100 µM
same,TGI,A498 renal,> 100 µM
same,TGI,A549 NSCLC,> 100 µM
same,TGI,ACHN renal,> 100 µM
same,TGI,BT-549 breast,> 100 µM
same,TGI,CAKI-1 renal,> 100 µM
same,TGI,CCRF-CEM leukemia,> 100 µM
same,TGI,COLO 205 colon,> 100 µM
same,TGI,DU-145 prostate,> 100 µM
same,TGI,EKVX NSCLC,> 100 µM
same,TGI,HCC-2998 colon,> 100 µM
same,TGI,HCT-116 colon,> 100 µM
same,TGI,HCT-15 colon,> 100 µM
same,TGI,HL-60(TB) leukemia,> 100 µM
same,TGI,HOP-62 NSCLC,> 100 µM
same,TGI,HOP-92 NSCLC,> 100 µM
same,TGI,HS 578T breast,> 100 µM
same,TGI,HT29 colon,> 100 µM
same,TGI,IGROV1 ovarian,> 100 µM
same,TGI,K-562 leukemia,> 100 µM
same,TGI,KM12 colon,> 100 µM
same,TGI,LOX IMVI melanoma,> 100 µM
same,TGI,M14 melanoma,> 100 µM
same,TGI,MALME-3M melanoma,> 100 µM
same,TGI,MCF7 breast,> 100 µM
same,TGI,MDA-MB-231 breast,> 100 µM
same,TGI,MDA-MB-435,> 100 µM
same,TGI,MDA-N,> 100 µM
same,TGI,MOLT-4 leukemia,> 100 µM
same,TGI,NCI-H226 lung,> 100 µM
same,TGI,NCI-H23 lung,> 100 µM
same,TGI,NCI-H460 lung,> 100 µM
same,TGI,NCI-H522 lung,> 100 µM
same,TGI,NCI/ADR-RES ovarian,> 100 µM
same,TGI,OVCAR-3 ovarian,> 100 µM
same,TGI,OVCAR-4 ovarian,> 100 µM
same,TGI,OVCAR-5 ovarian,> 100 µM
same,TGI,OVCAR-8 ovarian,> 100 µM
same,TGI,PC-3 prostate,> 100 µM
same,TGI,RPMI-8226 leukemia,> 100 µM
same,TGI,RXF 393 renal,> 100 µM
same,TGI,SF-268 CNS,> 100 µM
same,TGI,SF-295 CNS,> 100 µM
same,TGI,SF-539 CNS,> 100 µM
same,TGI,SK-MEL-2 melanoma,> 100 µM
same,TGI,SK-MEL-28 melanoma,> 100 µM
same,TGI,SK-MEL-5 melanoma,> 100 µM
same,TGI,SN12C renal,> 100 µM
same,TGI,SNB-19 CNS,> 100 µM
same,TGI,SNB-75 CNS,> 100 µM
same,TGI,SR leukemia,> 100 µM
same,TGI,SW-620 colon,> 100 µM
same,TGI,T-47D breast,> 100 µM
same,TGI,U251 CNS,> 100 µM
same,TGI,UACC-257 melanoma,> 100 µM
same,TGI,UACC-62 melanoma,> 100 µM
same,TGI,UO-31 renal,> 100 µM
